{
  "source": "ChEMBL document CHEMBL1141354",
  "about": "“Isolation and structures of erylosides from the Carribean sponge Erylus goffrilleri” (J Nat Prod, 2007)",
  "data": [
    {"test_system": "Ehrlich", "test": "Cytotoxicity against albino mouse Ehrlich carcinoma cells after 1 hr", "assay_type": "functional, cell-based", "units": {"IC50": "µM"}, "values": [
      {"compound": "CC(=O)N[C@H]1[C@H](O[C@H]2[C@H](O[C@H]3CC[C@]4(C)C5=C(CC[C@H]4C3(C)C)[C@]3(C(=O)O)CCC([C@H](C)CCC(C)(OC(C)=O)C(C)C)[C@@]3(C)CC5)O[C@H](CO)[C@H](O)[C@@H]2O)O[C@H](CO)[C@@H](O)[C@@H]1O", "note": "(stereo partly specified) [ERYLOSIDE F6]", "IC50": 20},
      {"compound": "C[C@H](CCC(C)(O)C(C)(C)C)C1CC[C@@]2(C(=O)O)C3=C(CC[C@]12C)[C@@]1(C)CC[C@H](O[C@@H]2O[C@H](CO)[C@H](O)[C@H](O[C@@H]4O[C@H](CO)[C@@H](O)[C@H](O)[C@H]4O)[C@H]2O)C(C)(C)[C@@H]1CC3", "note": "(stereo partly specified) [ERYLOSIDE F7]", "IC50": 20},
      {"compound": "C[C@H](CCC(C)(O)C(C)(C)C)C1CC[C@@]2(C(=O)O)C3=C(CC[C@]12C)[C@@]1(C)CC[C@H](O[C@@H]2O[C@H](CO)[C@H](O)[C@H](O)[C@H]2O)C(C)(C)[C@@H]1CC3", "note": "(stereo partly specified) [ERYLOSIDE R]", "IC50": 20},
      {"compound": "CC(=O)OC(C)(CC[C@@H](C)C1CC[C@@]2(C(=O)O)C3=C(CC[C@]12C)[C@@]1(C)CC[C@H](O[C@@H]2O[C@H](CO)[C@H](O)[C@H](O)[C@H]2O)C(C)(C)[C@@H]1CC3)C(C)C", "note": "(stereo partly specified) [ERYLOSIDE S]", "IC50": 20},
      {"compound": "C[C@H](CCC(C)(O)C(C)(C)C)C1CC[C@]23C(=O)O[C@]4(CC[C@]12C)C3=CC[C@H]1C(C)(C)[C@@H](O[C@@H]2O[C@H](CO)[C@H](O)[C@H](O)[C@H]2O)CC[C@@]14C", "note": "(stereo partly specified) [ERYLOSIDE T]", "IC50": 20},
      {"compound": "C[C@H](CCC(C)(O)C(C)(C)C)C1CC[C@@]2(C(=O)O)C3=C(CC[C@]12C)[C@@]1(C)CC[C@H](O[C@@H]2OC[C@H](O)[C@H](O[C@@H]4OC[C@@H](O)[C@H](O)[C@H]4O)[C@H]2O[C@@H]2O[C@H](CO)[C@H](O)[C@H](O)[C@H]2O)C(C)(C)[C@@H]1CC3", "note": "(stereo partly specified) [ERYLOSIDE V]", "IC50": 20}
    ]}
  ]
}
